According to patent publication US10987360B2, “Hepatitis B core protein modulators” (Assembly Biosciences, Inc., priority 2016, dated 2021):
Where two headings read alike, the source gives them in different places.

Legend:
[1] = tested on: HBV viral load in AD38 cells; test: Viral load production in AD38 cells, quantitative PCR of the core sequence in supernatant; format: cell-based; conditions: Hepatitis B virus, 144 h, 6 days incubation
Procedure: (§1) Assay Measuring Activity of Compounds on Viral Production in and on Viability of AD38 Cells
(§2) AD38 cells grown in a 175 cm flask with “Growth Medium” (DMEM/F12 (1:1) (cat #SH30023.01, Hyclone, 1×Pen/step (cat #: 30-002-CL, Mediatech, Inc), 10% FBS (cat #: 101, Tissue Culture Biologics), 250 μg/mL G418 (cat #: 30-234-CR, Mediatech, Inc), 1 μg/mL Tetracycline (cat #: T3325, Teknova)) were detached with 0.25% trypsin. Tetracycline-free “treatment medium” (15 mL DMEM/F12 (1:1) (cat #SH30023.01, Hyclone, 1×Pen/step (cat #: 30-002-CL, Mediatech, Inc), with 2% FBS, Tet-system approved (cat #: 631106, Clontech) were then added to mix and spun at 1300 rpm for 5 min. Pelleted cells were then re-suspended/washed with 50 mL of 1×PBS 2 times and 10 mL Treatment Medium one time. AD38 cells were then re-suspended with 10 mL of Treatment Medium and counted. Wells of a collagen coated 96-well NUNC microtiter plate were seeded at 50,000/well in 180 μL of Treatment Medium, and 20 μL of in treatment media with either 10% DMSO (Control) or a 10× solution of compound in 10% DMSO was added. Plates were incubated for 6 days at 37° C.
Viral load production was assayed by quantitative PCR of the core sequence. Briefly, 5 μL of clarified supernatant was added to a PCR reaction mixture that contained forward primers HBV-f 5′-CTGTGCCTTGGGTGGCTTT-3′, Reverse primers HBV-r 5′-[…]-3′ and Fluorescent TaqMan™ Probes HBV-probe 5′-FAM/AGCTCCAAA/ZEN/[…]/3IABkFQ-3′ in Quanta Biosciences PerfeCTa® qPCR Toughmix®, and was subsequently on an Applied Biosystems VIIA7 in a final volume of 20 μL. The PCR mixture was incubated at 45° C. for 5 minutes, then 95° C. for 10 min, followed by 40 cycles of 10 seconds at 95° C. and 20 seconds at 60° C. Viral load was quantitated against known standards by using ViiA™ 7 Software. Viral load in the supernatant from wells with treated cells were compared against viral load in supernatant from DMSO control wells (≥3 per plate).

AD38 cells = test: Viability of AD38 cells, Promega CellTiter-Glo; format: cell-based; conditions: 6 days incubation, controls being 100%; for AD38 Viability Normalized Result (CPAM/DMSO %) at 10 μM: Table 6, compounds of Group 4
Procedure: as §1, §2
At the end of compound treatment period cell viability was assessed using a Promega CellTiter-Glo protocol. All supernatant was removed the previously treated 96-well microtiter plate, and 50 μL Tetracycline-free treatment medium (DMEM/F12 (1:1), 1×Pen/step (cat #: 30-002-CL, Mediatech, Inc), with 2% FBS, Tet-system approved (cat #: 631106, Clontech), and 1% DMSO was added back to each well. Another 50 μL of CellTiter-Glo reagent solution (Promega, G7573) was then added at room temperature and the contents mixed for 2 minutes on an orbital shaker to induce cell lysis. This was followed by incubation at room temperature for 10 minutes to stabilize the luminescent signal. The luminescence was recorded for 0.2 seconds per well on a Tecan multimode platereader (Infinite M1000 pro). The luminescent signal from each well was normalized against that of untreated (DMSO) control wells. All results in Tables 3-6 were reported with percent viability (with controls being 100%).

[2] = Table 4, compounds of Group 2, read-out: AD38 Viral Load (%) (VL with cmpd/VL in DMSO control) at 10 μM
[3] = Table 3, compounds of Group 1, read-out: AD38 Viral Load (%) (VL with cmpd/VL in DMSO control) at 10 μM
[4] = Table 5, compounds of Group 3, read-out: AD38 Viral Load (%) (VL with cmpd/VL in DMSO control) at 10 μM
[5] = Table 6, compounds of Group 4, read-out: AD38 Viral Load (CpAM/DMSO %) at 10 μM

SMILES	activity at 10 µM [1, 2]	AD38 Viability Normalized Result (cmpd/DMSO %) at 10 μM (AD38 cells; Table 4, compounds of Group 2)	activity at 10 µM [1, 3]	AD38 Viability Normalized Result (cmpd/DMSO %) at 10 μM (AD38 cells; Table 3, compounds of Group 1)	further results
N#Cc1ccc(-c2ncc(CNC(=O)c3ccc4c(c3)NC(=O)[C@H]3CCCCN3S4(=O)=O)s2)c(F)c1 (single isomer, unassigned) [C25-02-Isomer II]	0.6%	111%	–	–	–
N#Cc1ccc(-c2ncc(CNC(=O)c3ccc4c(c3)NC(=O)[C@@H]3CCCCN3S4(=O)=O)s2)c(F)c1 (single isomer, unassigned) [C25-02-Isomer I]	3%	108%	–	–	–
O=C(NCc1cnc(-n2cccn2)s1)c1ccc2c(c1)NC(=O)[C@H]1CCCCN1S2(=O)=O (single isomer, unassigned) [C25-04-Isomer II]	1.7%	99%	–	–	–
O=C(NCc1cnc(-n2cccn2)s1)c1ccc2c(c1)NC(=O)[C@@H]1CCCCN1S2(=O)=O (single isomer, unassigned) [C25-04-Isomer I]	8.3%	104%	–	–	–
Cc1ncc(CNC(=O)c2ccc3c(c2)NC(=O)c2ccncc2S3)s1 [Compound 576]	11.7%	98%	–	–	–
O=C(NCc1cnc(-c2ccccc2)s1)c1ccc2c(c1)NC(=O)c1ccncc1S2 [Compound 578]	3%	100%	–	–	–
O=C(NCc1cnc(-c2ccc(O)cc2)s1)c1ccc2c(c1)NC(=O)c1ccncc1S2 [Compound 762]	45.6%	102%	–	–	–
O=C1CCC(c2ncc(CNC(=O)c3ccc4c(c3)NC(=O)c3ccccc3S4(=O)=O)s2)CC1 [Compound 818, 11-oxo-N-((2-(4-oxocyclohexyl)thiazol-5-yl)methyl)-10,11-dihydrodibenzo[b,f][1,4]thiazepine-8-carboxamide 5,5-dioxide]	–	–	1.3%	84%	–
Cl.NC1CCC(Cc2ncc(CNC(=O)c3ccc4c(c3)NC(=O)c3ccccc3S4(=O)=O)s2)CC1 (stereo not shown) [Compound 884, N-((2-((4-aminocyclohexyl)methyl)thiazol-5-yl)methyl)-11-oxo-10,11-dihydrodibenzo[b,f][1,4]thiazepine-8-carboxamide 5,5-dioxide hydrochloride]	–	–	15.1%	94%	–
O=C(NCc1cnc(C2CCC(O)CC2)s1)c1ccc2c(c1)NC(=O)c1ccccc1S2(=O)=O (stereo not shown) [Compound 924, N-((2-(4-hydroxycyclohexyl)thiazol-5-yl)methyl)-11-oxo-10,11-dihydrodibenzo[b,f][1,4]thiazepine-8-carboxamide 5,5-dioxide]	–	–	0.7%	95%	–
CC(C)(C)OC(=O)N1CCC(c2ncc(CNC(=O)c3ccc4c(c3)NC(=O)c3ccccc3S4(=O)=O)s2)CC1 [Compound 926-A]	–	–	3.6%	98%	–
O=C(NCc1cnc(CN2CCOCC2)s1)c1ccc2c(c1)NC(=O)c1ccccc1S2(=O)=O [Compound 927]	–	–	4.7%	92%	–
CC1(C)CCC(c2ncc(CNC(=O)c3ccc4c(c3)NC(=O)c3ccccc3S4(=O)=O)s2)C1 (stereo not shown) [Compound 979]	–	–	0.5%	59%	–
O=C1CCC(c2ncc(CNC(=O)c3ccc4c(c3)NC(=O)c3ccccc3S4(=O)=O)s2)C1 (stereo not shown) [Compound 980-A, 11-oxo-N-((2-(3-oxocyclopentyl)thiazol-5-yl)methyl)-10,11-dihydrodibenzo[b,f][1,4]thiazepine-8-carboxamide 5,5-dioxide]	–	–	1.2%	97%	–
COC1(OC)CCC(c2ncc(CNC(=O)c3ccc4c(c3)NC(=O)c3ccccc3S4(=O)=O)s2)C1 (stereo not shown) [Compound 980-B, N-((2-(3,3-dimethoxycyclopentyl)thiazol-5-yl)methyl)-11-oxo-10,11-dihydrodibenzo[b,f][1,4]thiazepine-8-carboxamide 5,5-dioxide]	–	–	0.9%	93%	–
O=C(NCc1cnc(C(F)(F)F)s1)c1ccc2c(c1)NC(=O)c1ccncc1S2(=O)=O [Compound 1020]	6.1%	97%	–	–	–
N#Cc1ccc(-c2ncc(CNC(=O)c3ccc4c(c3)NC(=O)c3ccncc3S4(=O)=O)s2)c(F)c1 [Compound 1021]	0.3%	96%	–	–	–
C[C@H](N)C(=O)N1CCC(c2ncc(CNC(=O)c3ccc4c(c3)NC(=O)c3ccccc3S4(=O)=O)s2)CC1.Cl [Compound 1034, N-((2-(1-(L-alanyl)piperidin-4-yl)thiazol-5-yl)methyl)-11-oxo-10,11-dihydrodibenzo[b,f][1,4]thiazepine-8-carboxamide 5,5-dioxide hydrochloride]	–	–	67.7%	106%	–
Cc1c(C(=O)NCc2cnn(-c3nccs3)c2)ccc2c1NC(=O)c1ccccc1S2(=O)=O [Compound 1153, 9-methyl-11-oxo-N-((1-(thiazol-2-yl)-1H-pyrazol-4-yl)methyl)-10,11-dihydrodibenzo[b,f][1,4]thiazepine-8-carboxamide 5,5-dioxide]	–	–	–	–	activity at 10 µM [1, 4]: 2.1%; AD38 Viability Normalized Result (cmpd/DMSO %) at 10 μM (AD38 cells; Table 5, compounds of Group 3): 92%
O=C(NCc1cnn(-c2nccs2)c1)c1ccc2c(c1)NC(=O)c1ccccc1S2(=O)=O [Compound 1155, 11-oxo-N-((1-(thiazol-2-yl)-1H-pyrazol-4-yl)methyl)-10,11-dihydrodibenzo[b, f][1,4]thiazepine-8-carboxamide 5,5-dioxide]	–	–	–	–	activity at 10 µM [1, 4]: 0.6%; AD38 Viability Normalized Result (cmpd/DMSO %) at 10 μM (AD38 cells; Table 5, compounds of Group 3): 104%
CC1=C(C)C(=O)Nc2cc(C(=O)NCc3cnc(C(F)(F)F)s3)ccc2O1 [Compound C1-01]	27.9%	106%	–	–	–
CC1=C(C)C(=O)Nc2cc(C(=O)NCc3cnc(-c4ccc(C#N)cc4F)s3)ccc2O1 [Compound C1-02]	20.4%	103%	–	–	–
Cc1cc(=O)[nH]c2cc(C(=O)NCc3cnc(C(F)(F)F)s3)ccc12 [Compound C2-01, 4-Methyl-2-oxo-N-((2-(trifluoromethyl)thiazol-5-yl)methyl)-1,2-dihydroquinoline-7-carboxamide]	–	–	–	–	activity at 10 µM [1, 5]: 69.7%; AD38 Viability Normalized Result (CPAM/DMSO %) at 10 μM (AD38 cells): 113%
CC(C)c1cc(=O)[nH]c2cc(C(=O)NCc3cnc(C(F)(F)F)s3)ccc12 [Compound C3-01, 4-Isopropyl-2-oxo-N-((2-(trifluoromethyl)thiazol-5-yl)methyl)-1,2-dihydroquinoline-7-carboxamide]	–	–	–	–	activity at 10 µM [1, 5]: 44.6%; AD38 Viability Normalized Result (CPAM/DMSO %) at 10 μM (AD38 cells): 105%
N#Cc1ccc(-c2ncc(CNC(=O)c3ccc4c(c3)NC(=O)C43CCCCC3)s2)c(F)c1 [Compound C6-02, N-((2-(4-Cyano-2-fluorophenyl)thiazol-5-yl)methyl)-2′-oxospiro[cyclohexane-1,3′-indoline]-6′-carboxamide]	–	–	–	–	activity at 10 µM [1, 5]: 41.2%; AD38 Viability Normalized Result (CPAM/DMSO %) at 10 μM (AD38 cells): 91%
CC1=C(C)S(=O)(=O)c2ccc(C(=O)NCc3cnc(C(F)(F)F)s3)cc2NC1=O [Compound C10-01]	12.2%	101%	–	–	–
